Measured values taken from patent publication US7407988B2, “Carbamic acid compounds comprising a sulfonamide linkage as HDAC inhibitors” (Topotarget UK Limited, priority 2000, dated 2008).
Counter-ions that a name gives are not always drawn. Like-named read-outs stand apart in the source and are kept apart here.

Experiments:
[1] = system: HeLa cells; assay: Secondary assay: cell proliferation WST-1, HeLa; format: cell-based; conditions: Homo sapiens, read-out: Cell Proliferation Inhibition WST-1 (IC50 unless otherwise specified) HeLa
[2] = system: HDAC (HeLa cell extract); assay: Primary assay: deacetylase activity, HeLa cell extract as source of HDAC; format: biochemical, human; conditions: for HDAC Inhibition HeLa, % @ 500: Table 1, @ 500
Description: Briefly, this assay relies on the release of radioactive acetate from a radioactively labelled histone fragment by the action of HDAC enzyme. Test compounds, which inhibit HDAC, reduce the yield of radioactive acetate. Signal (e.g., scintillation counts) measured in the presence and absence of a test compound provide an indication of that compound's ability to inhibit HDAC activity. Decreased activity indicates increased inhibition by the test compound.
The histone fragment was an N-terminal sequence from histone H4, and it was labelled with radioactively labelled acetyl groups using tritiated acetylcoenzyme A (coA) in conjunction with an enzyme which is the histone acetyltransferase domain of the transcriptional coactivator p300. […] The acetylated peptide was then separated from free acetyl coA by size exclusion chromatography on Sephadex G-15 (Sigma G-15-120), using distilled H2O as the mobile phase.
After purification of the radiolabelled histone fragment, it was incubated with a source of HDAC (e.g., an extract of HeLa cells (a rich source of HDAC), recombinantly produced HDAC1 or HDAC2) and any released acetate was extracted into an organic phase and quantitatively determined using scintillation counting. By including a test compound with the source of HDAC, that compound's ability to inhibit the HDAC was determined.
Two cell volumes of extraction buffer were used, and particulate material was centrifuged out (20800 g, 4° C., 10 min). The supernatant extract having deacetylase activity was aliquotted and frozen for storage.
A source of HDAC (e.g., 2 μL of crude HeLa extract, 5 μL of HDAC1 or HDAC2; in elution buffer, as above) was incubated with 3 μL of radioactively labelled peptide along with appropriate dilutions of candidate compounds (1.5 μL) in a total volume of 150 μL of buffer (20 mM Tris pH 7.4, 10% glycerol). The reaction was carried out at 37° C. for one hour, after which the reaction was stopped by adding 20 μL of 1 M HCl/0.4 M sodium acetate. […] Radioactivity was measured using a Tri-Carb 21 00TR Liquid Scintillation Analyzer (Packard).
Percent activity (% activity) for each test compound was calculated as: % activity={(S^C−B)/(S°−B)}×100 wherein S^C denotes signal measured in the presence of enzyme and the compound being tested, S° denotes signal measured in the presence of enzyme but in the absence of the compound being tested, and B denotes the background signal measured in the absence of both enzyme and compound being tested.

[3] = system: JURKAT human T-cell line; assay: Secondary assay: cell proliferation WST-1, Jurkat; format: cell-based; conditions: Homo sapiens, Table 2, 48 h, read-out: Cell Proliferation Inhibition WST-1 (IC50 unless otherwise specified) Jurkat
[4] = system: K11 HPV E7 transformed human keratinocyte line; assay: Secondary assay: cell proliferation WST-1, K11; format: cell-based; conditions: Homo sapiens, Keratinocyte; for IC50: Table 2, 48 h, read-out: Cell Proliferation Inhibition WST-1 (IC50 unless otherwise specified) K11
[5] = Table 1, read-out: HDAC Inhibition (IC50 unless otherwise specified) HeLa
[6] = comparative tables, HDAC inhibition, read-out: HeLa IC50

melting point | SMILES | IC50 ([1]; Table 2, 48 h) | IC50 [2, 5] | IC50 [3] | IC50 [4] | HDAC Inhibition HeLa, % @ 500 [2] | further results
132 to 134 °C | O=C(CCCCCNS(=O)(=O)c1cccnc1)NO (as salt: oxalate) [PX117432, 6-(Pyridine-3-sulfonylamino)hexanoic acid hydroxyamide oxalate] | – | – | – | – | – | –
– | O=C(/C=C/c1ccc(NS(=O)(=O)c2ccccc2)cc1)NO [PX106499, 3-(4-Benzenesulfonylaminophenyl)-N-hydroxyacrylamide] | 3800 nM | 35 nM | – | – | – | IC50 [2, 6]: 35 nM
80 to 82 °C | O=C(CCCCCNS(=O)(=O)c1ccccc1)NO [PX106522, 6-Benzenesulfonylaminohexanoic acid hydroxyamide] | 16700 nM | 1580 nM | – | – | – | IC50 [2, 6]: 1600 nM
88 to 90 °C | O=C(/C=C/C#Cc1cccc(S(=O)(=O)Nc2ccccc2)c1)NO [PX116238, (E)-5-(3-Phenylsulfamoylphenyl)pent-2-en-4-ynoic acid hydroxyamide] | 800 nM | 14 nM | – | – | – | IC50 [2, 6]: 14 nM
128 to 129 °C | O=C(CCCCS(=O)(=O)Nc1ccccc1)NO [PX117233, 5-(Anilinosulfonyl)-N-hydroxypentanamide] | – | – | – | – | 21% @ 500 | –
97 to 98 °C | O=C(CCCCCS(=O)(=O)Nc1ccccc1)NO [PX117234, 6-(Anilinosulfonyl)-N-hydroxyhexanamide] | – | – | – | – | 59% @ 500 | HeLa, % @ 500 nM ([2]; comparative tables): 59% @ 500 nM
163 to 164 °C | O=C(CCCCS(=O)(=O)Nc1ccc2ccccc2c1)NO [PX117235, N-Hydroxy-5-[(2-naphthylamino)sulfonyl]pentanamide] | – | – | – | – | 40% @ 500 | –
94 to 95 °C | O=C(CCCCCCS(=O)(=O)Nc1ccccc1)NO [PX117236] | – | – | – | – | 54% @ 500 | –
191 °C | O=C(/C=C/c1cccc(S(=O)(=O)NCc2cccnc2)c1)NO [PX117250, N-Hydroxy-3-{3-[(pyridin-3-ylmethyl)-sulfamoyl]-phenyl}-acrylamide] | 7800 nM | 192 nM | 1000 nM | – | – | –
69 to 70 °C | CN(c1ccccc1)S(=O)(=O)CCCCCCC(=O)NO [PX117260, N-Hydroxy-7-[(methylanilino)sulfonyl]heptanamide] | – | – | – | – | 35% @ 500 | –
121 to 122 °C | CN(c1ccccc1)S(=O)(=O)CCCCCC(=O)NO [PX117410, N-Hydroxy-6-[(methylanilino)sulfonyl]hexanamide] | – | – | – | – | 40% @ 500 | –
65.5 to 66.5 °C | CN(c1ccccc1)S(=O)(=O)CCCCCCCC(=O)NO [PX117411, N-Hydroxy-8-[(methylanilino)sulfonyl]octanamide] | – | – | – | – | 39% @ 500 | –
119 to 119.5 °C | O=C(CCCCCCCS(=O)(=O)N(Cc1ccccc1)c1ccccc1)NO [PX117412, 8-[(Benzylanilino)sulfonyl]-N-hydroxyoctanamide] | – | – | – | – | 54% @ 500 | –
129 to 129.5 °C | O=C(CCCCCS(=O)(=O)N(Cc1ccccc1)c1ccccc1)NO [PX117414, 6-[(Benzylanilino)sulfonyl]-N-hydroxyhexanamide] | – | – | – | – | 46% @ 500 | –
107 to 109 °C | O=C(CCCCCNS(=O)(=O)/C=C/c1ccccc1)NO [PX117429, 6-(2-Phenylethenesulfonylamino)hexanoic acid hydroxyamide] | – | – | – | – | 73% @ 500 | –
– | O=C(CCCCCNS(=O)(=O)c1cccnc1)NO [PX117432, 6-(Pyridine-3-sulfonylamino)hexanoic acid hydroxyamide oxalate] | – | – | – | – | 24% @ 500 | –
176 to 177.5 °C | O=C(/C=C/c1ccc(S(=O)(=O)Nc2ccccc2)cc1)NO [PX117450, N-Hydroxy-3-(4-phenylsulfamoylphenyl)acrylamide] | 1600 nM | 20 nM | – | – | – | IC50 [2, 6]: 20 nM
– | O=C(/C=C/c1cccc(S(=O)(=O)Nc2ccccc2-c2ccccc2)c1)NO [PX117713, 3-[3-(Biphenyl-2-ylsulfamoyl)phenyl]-N-hydroxy-acrylamide] | 5100 nM | 138 nM | 620 nM | 9200 nM | – | –
– | COc1cc(CNS(=O)(=O)c2cccc(/C=C/C(=O)NO)c2)cc(OC)c1OC [PX117778, N-Hydroxy-3-[3-(3,4,5-trimethoxy-benzylsulfamoyl)-phenyl]-acrylamide] | – | > 400 nM | > 10000 nM | > 30000 nM | – | –
– | COc1ccc(CCNS(=O)(=O)c2cccc(/C=C/C(=O)NO)c2)cc1OC [PX117779, 3-{3-[2-(3,4-Dimethoxy-phenyl)-ethylsulfamoyl]-phenyl}-N-hydroxy-acrylamide] | 9600 nM | 250 nM | 1100 nM | 1400 nM | – | –

SMILES | melting point | IC50 ([1]; Table 2, 48 h) | IC50 [2, 5] | IC50 [3] | IC50 [4] | HDAC Inhibition HeLa, % @ 500 [2] | further results
O=C(/C=C/c1cccc(S(=O)(=O)Nc2ccc(Br)cc2)c1)NO [PX106509] | 204 °C | 2000 nM | 6 nM | 330 nM | 2000 nM | – | –
O=C(/C=C/c1cccc(S(=O)(=O)Nc2ccc(Cl)cc2)c1)NO [PX106510] | 198 °C | 2300 nM | 12 nM | 250 nM | 4200 nM | – | –
O=C(/C=C/c1cccc(S(=O)(=O)NCc2ccccc2)c1)NO [PX106511] | 179 °C | 380 nM | 35 nM | 235 nM | 2500 nM | – | IC50 [2, 6]: 35 nM
O=C(/C=C/c1ccccc1S(=O)(=O)Nc1ccccc1)NO [PX116242, N-Hydroxy-3-(2-phenylsulfamoylphenyl)acrylamide] | 205 to 206.5 °C | – | – | – | – | 9% @ 500 | HeLa, % @ 500 nM ([2]; comparative tables): 9% @ 500 nM
O=C(/C=C/c1cccc(S(=O)(=O)NCc2cccc3ccccc23)c1)NO [PX117225, N-Hydroxy-3-{3-[(naphthalen-1-ylmethyl)sulfamoyl]-phenyl}-acrylamide] | 177 °C | – | 640 nM | 3300 nM | – | – | IC50 ([1]; 48 h): 11900 nM; IC50 [2, 6]: 640 nM; inhibition at 20 µM ([4]; Table 2, @ 20 μM, 48 h): 26%
O=C(/C=C/c1cccc(S(=O)(=O)NCc2ccc3c(c2)OCO3)c1)NO [PX117226, 3-{3-[(Benzo[1,3]dioxol-5-ylmethyl)-sulfamoyl]-phenyl}-N-hydroxy-acrylamide] | 163 °C | 500 nM | 26.3 nM | 100 nM | 2800 nM | – | –
COc1ccccc1NS(=O)(=O)c1cccc(/C=C/C(=O)NO)c1 [PX117227, N-Hydroxy-3-[3-(2-methoxy-phenylsulfamoyl)-phenyl]-acrylamide] | 181 °C | 1200 nM | 50 nM | 360 nM | 4700 nM | – | –
O=C(/C=C/c1ccccc1S(=O)(=O)Nc1cccc2ccccc12)NO [PX117447, N-Hydroxy-3-[2-(naphthalen-1-ylsulfamoyl)-phenyl]-acrylamide] | 186 to 187 °C | – | – | – | – | 3% @ 500 | IC50 ([1]; 48 h): 77800 nM; HeLa, % @ 500 nM ([2]; comparative tables): 3% @ 500 nM
CN(c1ccccc1)S(=O)(=O)c1ccccc1/C=C/C(=O)NO [PX117448, N-Hydroxy-3-[2-(methyl-phenyl-sulfamoyl)-phenyl]-acrylamide] | 144.5 to 145.5 °C | – | – | – | – | 3% @ 500 | IC50 ([1]; 48 h): 88900 nM; HeLa, % @ 500 nM ([2]; comparative tables): 3% @ 500 nM
O=C(/C=C/c1cccc(S(=O)(=O)NC2Cc3ccccc3C2)c1)NO [PX117735, N-Hydroxy-3-[3-(indan-2-ylsulfamoyl)-phenyl]-acrylamide] | 164 °C | – | 6 nM | 74 nM | 3100 nM | – | –
O=C(/C=C/c1ccc(S(=O)(=O)Nc2ccc3ccccc3c2)cc1)NO [PX117736, N-Hydroxy-3-[4-(naphthalen-2-ylsulfamoyl)-phenyl]-acrylamide] | 198.5 to 199.5 °C | – | 6 nM | 120 nM | 800 nM | – | –
